In patent EP4759817A1, “HETEROARYL COMPOUND, PREPARATION METHOD THEREFOR, AND USE THEREOF IN MEDICINE” (Jiangsu Hengrui Pharmaceuticals Co., Ltd., priority 2023, dated 2025):

Legend:
[1] = target: T1, Recombinant human PRMT5: MEP50 protein (Homo sapiens, UniProt O14744); assay: Inhibitory activity against human PRMT5 enzymatic activity (HTRF quantification of SAH, +MTA); assay type: biochemical; settings: +1 µM MTA; histone H4 peptide substrate (1-21), SAM; 37°C 120 min
T1 construct: purchased active motif 31521
T1 sequence (O14744 whole entry): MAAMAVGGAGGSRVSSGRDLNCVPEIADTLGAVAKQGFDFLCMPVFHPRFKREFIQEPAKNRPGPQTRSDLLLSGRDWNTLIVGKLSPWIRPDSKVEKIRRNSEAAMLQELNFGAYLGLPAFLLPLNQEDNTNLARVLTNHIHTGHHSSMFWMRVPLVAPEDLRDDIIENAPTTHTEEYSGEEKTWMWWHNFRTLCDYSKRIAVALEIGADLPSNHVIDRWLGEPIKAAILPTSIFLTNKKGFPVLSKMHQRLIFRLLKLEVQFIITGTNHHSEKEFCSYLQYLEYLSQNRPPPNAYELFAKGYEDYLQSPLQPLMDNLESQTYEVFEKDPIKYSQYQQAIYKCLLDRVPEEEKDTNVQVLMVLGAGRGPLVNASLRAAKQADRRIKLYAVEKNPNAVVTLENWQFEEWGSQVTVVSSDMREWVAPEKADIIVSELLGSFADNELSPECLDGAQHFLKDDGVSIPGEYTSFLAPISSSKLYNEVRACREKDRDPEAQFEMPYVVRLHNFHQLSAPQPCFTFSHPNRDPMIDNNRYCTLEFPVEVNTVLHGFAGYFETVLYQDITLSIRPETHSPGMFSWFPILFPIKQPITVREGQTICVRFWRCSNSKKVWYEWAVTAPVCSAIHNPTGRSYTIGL
T1 sequence (Q9BQA1 whole entry partner): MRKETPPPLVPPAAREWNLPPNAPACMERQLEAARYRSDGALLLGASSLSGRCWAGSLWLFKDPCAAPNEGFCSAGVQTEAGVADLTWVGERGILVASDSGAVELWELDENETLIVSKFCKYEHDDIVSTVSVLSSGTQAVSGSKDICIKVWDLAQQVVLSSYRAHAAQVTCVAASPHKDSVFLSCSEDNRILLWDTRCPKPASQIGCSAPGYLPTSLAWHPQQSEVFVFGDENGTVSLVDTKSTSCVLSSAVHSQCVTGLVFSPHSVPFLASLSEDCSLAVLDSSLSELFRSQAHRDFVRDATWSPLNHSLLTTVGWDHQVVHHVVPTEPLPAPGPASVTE
Experimental: • 1. Recombinant human PRMT5: MEP50 protein (active motif, 31521) • 2. EPIgeneous Methyltransferase kit (cisbio, 62SAHPEH) • 3. 96-well plate (Sangon Biotech, F610960-0010) • 4. 384-well white plate (Perkin Elmer, 6007290) • 5. 1 M Tris-HCl [pH 8.5] (Sangon Biotech, B548141) • 6. Histone H4 peptide substrates (1-21) (BPS bioscience, 52014) • 7. 5'-deoxy-5'-(methylthio)adenosine (Aladdin, D168979-25 mg) • 8. Tween-20 (Sangon Biotech, A100777-0500) • 9. DMSO (Sigma, D2650) • 10. Incubator (Shanghai Boxun Medical Biological Instrument Corp.) • 11. PHERAstar FS microplate reader (BMG Labtech)
PRMT5 can induce the transfer of a methyl group from S-adenosylmethionine (SAM) to a histone H4 peptide substrate (1-21), generating S-adenosylhomocysteine (SAH). In this experiment, the amount of SAH produced in the reaction is quantified using a Homogeneous Time-Resolved Fluorescence (HTRF) method to evaluate the inhibitory activity of compounds against PRMT5 enzymatic activity.
The sample diluent containing (or not containing) 1 µM 5 '-deoxy-5' - (methylthiyl) adenosine (MTA) was prepared using the EPIgeneous Diluent Buffer from the EPIgeneous Methyltransferase kit. With reference to the instructions, SAM and SAH standards were serially diluted and dispensed at 10 µL per well (in duplicate for each concentration). 2 µL of EPIgeneous Detection Buffer 1 was added to each well, and the plate was centrifuged, shaken to mix thoroughly, and placed at room temperature for 10 min. The SAH d2 Reagent was diluted 32-fold with EPIgeneous Detection Buffer 2, and 4 µL of the diluted SAH-d2 solution was added to each well. The plate was centrifuged and shaken for 2 min to mix thoroughly. The SAH Tb Cryptate Antibody was diluted 50-fold in EPIgeneous Detection Buffer 2. 4 µL of the diluted Tb Cryptate Antibody solution was added to each well, and the plate was centrifuged, shaken for 2 min to mix thoroughly, and left to stand at room temperature for 60 min, followed by reading on a PHERAstar FS microplate reader to obtain the 665/620 ratio. Plotting SAH concentration against the ratio to generate an x-y curve yields a corresponding calculation formula.
Reaction buffer (1×): 50 mM Tris-HCl [pH 8.5], 1 mM DTT, 0.005% Tween-20.
Compound preparation: a 20 mM solution of test compound in 100% DMSO was diluted in 100% DMSO to 1 mM as the highest concentration, and the solution at this concentration was then subjected to a 10-point, 3-fold serial dilution in 100% DMSO in a 96-well plate. Wells containing 100% DMSO served as the blank control. The above-described serially diluted compounds and the 100% DMSO were diluted 20-fold with the reaction buffer to prepare 5× compound solutions, which were mixed thoroughly for use.
The PRMT5:MEP50 was diluted in the reaction buffer to a final concentration of 12.5 nM. Then, 4 µL of the 12.5 nM PRMT5:MEP50 solution was added to each well of a 384-well plate. Wells containing 4 µL of the reaction buffer served as the negative control wells. 2 µL of the 5× compound solution was added to each well. For the negative control wells (no enzyme, no compound) and the positive control wells (no compound), 2 µL of 5% DMSO was added. The plate was sealed with a membrane, centrifuged, shaken for 2 min to mix thoroughly, and placed at room temperature for 20 min.
Preparation of substrate mixture solution: The substrate mixture solution containing 1.5 µM histone H4 peptide substrate (1-21) and 2.5 µM SAM, or 1.5 µM histone H4 peptide substrate (1-21), 2.5 µM SAM and 2.5 µM MTA was prepared in the reaction buffer.
The reaction was initiated by adding 4 µL of the substrate mixture solution (-/+ MTA) to each well. The plate was sealed with a membrane, centrifuged, shaken for 2 min to mix thoroughly, and incubated at 37°C for 120 min in a constant temperature incubator.
Detection: The detection was performed by using the EPIgeneous Methyltransferase kit. […]

HCT116 MTAP-/- cells = assay: HCT116 MTAP-/- cell proliferation assay (CellTiter-Glo, 10 days); assay type: cell-based; settings: growth inhibition, CTG assay Day 10
Description: (§1) • I. Experimental materials and instruments • 1. HCT116 cell line (Nanjing Kebai Biotechnology Co., Ltd., CBP60028) • 2. HCT116 MTAP-/- cell line (Nanjing Kebai Biotechnology Co., Ltd., CBP75002) • 3. DMSO (Sigma, D2650) • 4. McCoy's 5A medium (Gibco, 16600-082) • 5. Foetal bovine serum (FBS) (Gibco, 10091148) • 6. Phosphate buffered saline (DPBS) pH 7.4 (Gibco, 14190-144) • 7. Pen strep (PS) (Gibco, 15140-122) • 8. 0.25% Typsin-EDTA (1×) (Gibco, 25200-072) • 9. CellTiter-Glo® Luminescent Cell Viability Assay (Promega, G7572) • 10. 96-well round-bottom plate (JET, TCP002096) • 11. 96-well black clear bottom plate (Hangzhou Xinyou Biotechnology Co., Ltd., 060096) • 12. 1.2 mL 96-well deep well plate, clear, sterile, square-well, V-bottom (Titan, 02089063) • 13. 15-mL centrifuge tube (Titan) • 14. Biosafety cabinet (Thermo, 1300AII) • 15. Cell counter (Countstar, IC1000) • 16. Incubator (Thermo, I160) • 17. Centrifuge (Beckman coulter, Allegra X-12 centrifuge) • 18. PHERAstar FS microplate reader (BMG Labtech) • II. Experimental procedure • 1. Cell plating (Day 0) • a) The cell morphology was observed under a microscope to ensure confluence reached approximately 90%. • b) The cell supernatant was aspirated, the cells were washed once with PBS, and then the PBS was removed; and the cells were digested by adding an appropriate amount of trypsin, and left to stand at 37°C for 3 minutes. • c) The digestion was terminated by adding an equal volume of McCoy's 5A medium containing 10% FBS, and the cell suspension was collected and centrifuged at 300 g for 3 minutes; and the cells were resuspended in an appropriate amount of fresh medium. • d) The resuspended cell suspension was taken for counting. • e) The cell suspension was diluted to 1e4/mL using McCoy's 5A medium containing 10% FBS, and seeded at 50 µL per well, corresponding to 500 cells/well for HCT116 and 500 cells/well for HCT116 MTAP-/-. • f) The cell plate was placed in a 37°C, 5% carbon dioxide incubator and incubated overnight. • 2. Compound treatment (Day 1) • a) Each compound was serially diluted in DMSO to generate a 9-point concentration gradient (starting concentration: 10000 µM, 3-fold dilution; the highest concentration may be adjusted individually based on IC50 of different compounds); for example, in a 96-well round-bottom compound-dilution plate, 5 µL of the compound was sequentially diluted into 10 µL of DMSO. • b) Each concentration point of every compound was then diluted 250-fold into the corresponding volume of McCoy's 5A medium. • c) To each cell plate, 50 µL of the diluted compound solution as described above was added sequentially to the cell supernatant (50 µL/well). • d) The compound-treated cell plate was placed in a 37°C, 5% carbon dioxide incubator and incubated. • 3. Re-digestion, re-plating and compound treatment (Day 5) • a) After 5 days of compound treatment, the compound-containing medium was aspirated, and the cells were rinsed once with PBS (100 µL/well); and the PBS was removed immediately. • b) The cells were digested by adding 25 µL of trypsin and incubated at 37°C for 3 minutes, and then the digestion was terminated by adding 175 µL/well of McCoy's 5A medium containing 10% FBS. • c) The cells were mixed thoroughly using a pipette, and re-plated at 1 : 20; and specifically, 10 µL of the cell suspension was aspirated to a new 96-well plate (pre-filled with 40 µL of McCoy's 5A medium containing 10% FBS. • d) Compounds were prepared and added according to steps a) to c) in Section 2, with 50 µL added per well. • e) The compound-treated cell plate was placed in a 37°C, 5% carbon dioxide incubator and incubated. • 4. […]

HCT116 cells = assay: HCT116 cell proliferation assay (CellTiter-Glo, 10 days); assay type: cell-based; settings: growth inhibition, CTG assay Day 10
Description: as §1, with “3.” for “3. Re-digestion, re-plating and compound treatment (Day 5) • a) After 5 days of compound treatment, the compound-containing medium was aspirated, and the cells were rinsed once with PBS (100 µL/well); and the PBS was removed immediately. • b) The cells were digested by adding 25 µL of trypsin and incubated at 37°C for 3 minutes, and then the digestion was terminated by adding 175 µL/well of McCoy's 5A medium containing 10% FBS. • c) The cells were mixed thoroughly using a pipette, and re-plated at 1 : 20; and specifically, 10 µL of the cell suspension was aspirated to a new 96-well plate (pre-filled with 40 µL of McCoy's 5A medium containing 10% FBS. • d) Compounds were prepared and added according to steps a) to c) in Section 2, with 50 µL added per well. • e) The compound-treated cell plate was placed in a 37°C, 5% carbon dioxide incubator and incubated. • 4.”

IC50 [1] [nM]	IC50 (HCT116 MTAP-/- cells; Homo sapiens, HCT-116, 240 h) [nM]	IC50 (HCT116 MTAP-/- cells) [nM]	IC50 (HCT116 cells) [nM]	IC50 (HCT116 cells; Homo sapiens, HCT-116, 240 h) [nM]	SMILES
2.8	15	–	–	–	[2H]C([2H])([2H])n1ncc(-c2ccc3c(=O)[nH]nc(CN)c3c2)c1-c1c(F)c(Cl)c2c(c1C#N)N1CCC[C@H]1CO2 (atropisomer, axis not shown; (M)) [Compound 13-p1, (M)-(S)-8-(4-(4-(aminomethyl)-1-oxo-1,2-dihydrophthalazin-6-yl)-1-(methyl-d3)-1H-pyrazol-5-yl)-6-chloro-7-fluoro-2,3,3a,4-tetrahydro-1H-benzo[b]pyrrolo[1,2-d][1,4]oxazine-9-carbonitrile]
–	–	13.3	2350	–	Cn1ncc(-c2ccc3c(=O)[nH]nc(CN)c3c2)c1-c1c(F)cc2c(c1C#N)O[C@@H]1CC[C@@H]1O2 (atropisomer, axis not shown; (M)) [Compound 1-p2, (M)-(2aR,8aS)-5-(4-(4-(aminomethyl)-1-oxo-1,2-dihydrophthalazin-6-yl)-1-methyl-1H-pyrazol-5-yl)-6-fluoro-1,2,2a,8a-tetrahydrobenzo[b]cyclobuta[e][1,4]dioxine-4-carbonitrile]
7.01	13.5	–	–	2370	[2H]C([2H])([2H])n1ncc(-c2ccc3c(=O)[nH]nc(CN)c3c2)c1-c1c(F)cc2c(c1C#N)O[C@@H]1CC[C@@H]1O2 (single isomer, unassigned) [Compound 2-p2]
